Patent publication US11471417B2 (Small Pharma Ltd, priority 2020, dated 2022)

Key:
[1] = In vitro intrinsic clearance in human hepatocytes with and without MAO inhibitors (first experiment); conditions: both, human, hepatocytes (pooled, 10 donors), human hepatocytes
[2] = system: Human (mixed gender) hepatocytes; test: as above; conditions: for Half-life % change / Intrinsic clearance % change: with MAO inhibitors vs no inhibitors
[3] = In vitro human mitochondrial fraction intrinsic clearance of SPL026 with/without MAO-A and MAO-B inhibitors; format: in vitro ADME; conditions: for half-life / microsomal CLint: 0.5 mg/mL human liver mitochondrial fraction
[4] = In vitro human mitochondrial fraction intrinsic clearance of SPL026 and SPL028 analogues; conditions: for microsomal CLint: Intrinsic Clearance
[5] = In vitro intrinsic clearance in human hepatocytes, D2, D6 and D8 DMT (third experiment); conditions: both, hepatocytes (pooled, 10 donors)
[6] = Half-life With inhibitors, with MAO-A/B inhibitor combination (Table 5)
[7] = Half-life Without inhibitors, without MAO-A/B inhibitor combination (Table 5)
[8] = Intrinsic clearance With inhibitors, with MAO-A/B inhibitor combination (Table 5)
[9] = Intrinsic clearance Without inhibitors, without MAO-A/B inhibitor combination (Table 5)
[10] = in vitro half-life With inhibitors, 5 μM, with 100 nM clorgyline and 100 nM Deprenyl/Selegiline (Table 4)
[11] = in vitro half-life Without inhibitors, 5 μM, without MAO inhibitors (Table 4)
[12] = with 100 nM Deprenyl/Selegiline (MAO-B inhibitor), Deprenyl (MAO-B inhibitor) 100 nM
[13] = 0.5 mg/mL human liver mitochondrial fraction, first experiment r7-r12, repeat r13-r20
[14] = human, liver mitochondrial fraction, Half-Life R1, human liver mitochondrial fraction, replicate R1
[15] = human, liver mitochondrial fraction, Half-Life R2, human liver mitochondrial fraction, replicate R2
[16] = human, liver mitochondrial fraction, Half-Life R3, human liver mitochondrial fraction, replicate R3
[17] = human, liver mitochondrial fraction, Half-Life R4, human liver mitochondrial fraction, replicate R4
[18] = human, liver mitochondrial fraction, 0.5 mg/mL human liver mitochondrial fraction, first experiment r7-r12, repeat r13-r20
[19] = human hepatocytes, MAO inhibitors vs none
[20] = with 100 nM clorgyline (MAO-A inhibitor), Clorgyline (MAO-A inhibitor) 100 nM
[21] = human, liver mitochondrial fraction, Half-life, 0.5 mg/mL human liver mitochondrial fraction, first experiment r7-r12, repeat r13-r20

SMILES	half-life at 5 μM [1, 6] [min]	half-life at 5 μM [1, 7] [min]	hepatocyte CLint at 5 μM [1, 8] [µL/min/1e6 cells]	hepatocyte CLint at 5 μM [1, 9] [µL/min/1e6 cells]	half-life at 5 μM [1, 10] [min]	half-life at 5 μM [1, 11] [min]	Half-life % change ([2]; human hepatocytes) [%]	Intrinsic clearance % change ([2]; human hepatocytes) [%]	half-life ([3]; DMSO Vehicle (no inhibitor)) [min]	microsomal CLint ([3]; DMSO Vehicle (no inhibitor)) [µL/min/mg]	Intrinsic Clearance [4, 13] [μL/min/mg protein]	half-life [4, 14] [min]	half-life [4, 15] [min]	half-life [4, 16] [min]	half-life [4, 17] [min]	microsomal CLint [4, 18] [µL/min/mg]	half-life at 5 μM [5] [min]	hepatocyte CLint at 5 μM [5] [µL/min/1e6 cells]	half-life [4, 13] [min]	half-life [4, 21] [min]	also measured
NCc1ccccc1 [Benzylamine]	460	76.3	< 3	16.7	460	76.3	>83.41	<−450	30.4	45.7	62.1	24.3	22.1	21.2	23.5	60					half-life [3, 12]: > 420 min; microsomal CLint [3, 12]: < 3.3 µL/min/mg
O=C(O)Cc1ccccc1Nc1c(Cl)cccc1Cl [Diclofenac]																	20.7	92.5			
COc1ccc([C@@H]2Sc3ccccc3N(CCN(C)C)C(=O)[C@@H]2OC(C)=O)cc1 [Diltiazem]																	87.3	22			
CN(C)CCc1c[nH]c2ccccc12 [SPL026, N,N-dimethyltryptamine]	96.1	92.4	13.2	13.8	96.1	92.4	3.82	−4.00	33.7	42.9	161.0	8.8	8.4	7.6	8.3	175	98.9	19.4	8.6	7.9	slower intrinsic clearance with inclusion of MAO inhibitors [2, 19]: ~4%; increase in intrinsic clearance with MAO-A inhibitor (Clorgyline) compared to SPL026 without MAO inhibitors ([3]; human liver mitochondrial fraction): 10 fold; half-life [3, 12]: 32.5 min; microsomal CLint [3, 12]: 42.7 µL/min/mg; half-life [3, 20]: > 374 min; microsomal CLint [3, 20]: < 3.9 µL/min/mg
[2H]C([2H])(Cc1c[nH]c2ccccc12)N(C)C [SPL028i, α,α-dideutero-N,N-dimethyltryptamine]	170		7.5	7.15	170		−5.33	4.67				86.1	99.4	82.6	72.1		233	8.3	92.8	77.3	quicker intrinsic clearance in the presence of MAO inhibitors [2, 19]: ~5%; change in intrinsic clearance and half-life compared to SPL026 ([2]; initial human hepatocyte studies): ~2 fold
[2H]C([2H])([2H])N(CCc1c[nH]c2ccccc12)C([2H])([2H])[2H] [SPL028vii, N,N-bis(trideutero)dimethyltryptamine]														9.4	10.9	137				10.2	
[2H]C([2H])([2H])N(C([2H])([2H])[2H])C([2H])([2H])Cc1c[nH]c2ccccc12 [SPL028viii, α,α-dideutero-N,N-bis(trideutero)dimethyltryptamine]											12.7			92.9		10.9			112.2		increase in metabolic stability ([4]; human mitochondrial fraction assays): 14 fold
NCCc1c[nH]c2ccc(O)cc12 [Serotonin]		33	10.1	38.6		33	73.75	−282.18	11.1	125	157.0	9.3	9.1	9.1	8.5	151					half-life [3, 20]: > 420 min; microsomal CLint [3, 20]: < 3.3 µL/min/mg
